In US20120220564A1, “SELECTIVE CALCIUM CHANNEL MODULATORS” (Zalicus Pharmaceuticals Ltd., priority 2009, published 2012):

Key:
α1H (CaV 3.2) = target: T1, α1H (CaV 3.2) (Homo sapiens, UniProt O95180); test: T-type calcium channel block, whole cell patch clamp; type: cell-based; details: HEK cells, mainly non-inactivated protocol; values above 10,000 nM represented as 10000
T1 construct: expressed in transfected cells; host or cells: HEK 293
Procedure, shortened: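 HEK293 cells stably expressing human T-type channels, whole-cell patch clamp; compounds in external solution with 0.1-0.01% DMSO, applied by gravity. Mainly non-inactivating protocol: holding −110 mV, 1 s pre-pulse −100 mV, 50 ms test pulse −40 mV (inactivated protocol uses ~−85 mV pre-pulse); IC50 reported.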

6 Hz psychomotor seizure = 6 Hz psychomotor seizure model of partial epilepsy; type: in vivo, mice; parameters: concentration or dose not given beside the values
Excerpt: Compounds can also be evaluated for the protection against seizures induced by a 6 Hz, 0.2 ms rectangular pulse width of 3 s duration, at a stimulus intensity of 32 mA (CC97) applied to the cornea of male CF1 mice (20-30 g) according to procedures described by Barton et al, “Pharmacological Characterization of the 6 Hz Psychomotor Seizure Model of Partial Epilepsy,” Epilepsy Res. 47(3):217-27 (2001). Seizures are characterised by the expression of one or more of the following behaviours: stun, forelimb clonus, twitching of the vibrissae and Straub-tail immediately following electrical stimulation.

[1] = system: minimal muscular or neurological impairment (rotarod); test: Mouse rotarod assay; type: in vivo, mice
Description: To assess a compound's undesirable side effects (toxicity), animals can be monitored for overt signs of impaired neurological or muscular function. In mice, the rotarod procedure (Dunham and Miya, J. Am. Pharmacol. Assoc. 46:208-209 (1957)) is used to disclose minimal muscular or neurological impairment (MMI). When a mouse is placed on a rod that rotates at a speed of 6 rpm, the animal can maintain its equilibrium for long periods of time. The animal is considered toxic if it falls off this rotating rod three times during a 1-min period.

[2] = system: Lamina I/II spinal cord neurons; test: Lamina assay, current-clamp recordings in spinal cord slices; type: cell-based, rat; details: Lamina I and II neurons
Excerpt: Male Wistar rats (P6 to P9 for voltage-clamp and P15 to P18 for current-clamp recordings) were anaesthetized through intraperitoneal injection of Inactin (Sigma). The spinal cord was then rapidly dissected out and placed in an ice-cold solution protective sucrose solution containing (in mM): 50 sucrose, 92 NaCl, 15 D-Glucose, 26 NaHCO3, 5 KCl, 1.25 NaH2PO4, 0.5 CaCl2, 7 MgSO4, 1 kynurenic acid, and bubbled with 5% CO2/95% O2. The meninges, dura, and dorsal and ventral roots were then removed from the lumbar region of the spinal cord under a dissecting microscope. The “cleaned” lumbar region of the spinal cord was glued to the vibratome stage and immediately immersed in ice cold, bubbled, sucrose solution. For current-clamp recordings, 300 to 350 μm parasagittal slices were cut to preserve the dendritic arbour of lamina I neurons, while 350 to 400 μm transverse slices were prepared for voltage-clamped […] channel recordings. Slices were allowed to recover for 1 hour at 35° C. in Ringer solution containing (in mM): 125 NaCl, 20 D-Glucose, 26 NaHCO3, 3 KCl, 1.25 NaH2PO4, 2 CaCl2, 1 MgCl2, 1 kynurenic acid, 0.1 picrotoxin, bubbled with 5% CO2/95% O2. The slice recovery chamber was then returned to room temperature (20 to 22° C.) and all recordings were performed at this temperature.
Neurons were visualized using IR-DIC optics (Zeiss Axioskop 2 FS plus, Gottingen, Germany), and neurons from lamina I and the outer layer of lamina II were selected based on their location relative to the substantia gelatinosa layer. Neurons were patch-clamped using borosilicate glass patch pipettes with resistances of […] Current-clamp recordings of lamina I/II neurons in the intact slice, the external recording solution was the above Ringer solution, while the internal patch pipette solution contained (in mM): 140 KGluconate, 4 NaCl, 10 HEPES, 1 EGTA, 0.5 MgCl2, 4 MgATP, 0.5 Na2GTP, adjusted to pH 7.2 with 5 M KOH and to 290 mOsm with D-Mannitol (if necessary). […]

T1 sequence (O95180 whole entry): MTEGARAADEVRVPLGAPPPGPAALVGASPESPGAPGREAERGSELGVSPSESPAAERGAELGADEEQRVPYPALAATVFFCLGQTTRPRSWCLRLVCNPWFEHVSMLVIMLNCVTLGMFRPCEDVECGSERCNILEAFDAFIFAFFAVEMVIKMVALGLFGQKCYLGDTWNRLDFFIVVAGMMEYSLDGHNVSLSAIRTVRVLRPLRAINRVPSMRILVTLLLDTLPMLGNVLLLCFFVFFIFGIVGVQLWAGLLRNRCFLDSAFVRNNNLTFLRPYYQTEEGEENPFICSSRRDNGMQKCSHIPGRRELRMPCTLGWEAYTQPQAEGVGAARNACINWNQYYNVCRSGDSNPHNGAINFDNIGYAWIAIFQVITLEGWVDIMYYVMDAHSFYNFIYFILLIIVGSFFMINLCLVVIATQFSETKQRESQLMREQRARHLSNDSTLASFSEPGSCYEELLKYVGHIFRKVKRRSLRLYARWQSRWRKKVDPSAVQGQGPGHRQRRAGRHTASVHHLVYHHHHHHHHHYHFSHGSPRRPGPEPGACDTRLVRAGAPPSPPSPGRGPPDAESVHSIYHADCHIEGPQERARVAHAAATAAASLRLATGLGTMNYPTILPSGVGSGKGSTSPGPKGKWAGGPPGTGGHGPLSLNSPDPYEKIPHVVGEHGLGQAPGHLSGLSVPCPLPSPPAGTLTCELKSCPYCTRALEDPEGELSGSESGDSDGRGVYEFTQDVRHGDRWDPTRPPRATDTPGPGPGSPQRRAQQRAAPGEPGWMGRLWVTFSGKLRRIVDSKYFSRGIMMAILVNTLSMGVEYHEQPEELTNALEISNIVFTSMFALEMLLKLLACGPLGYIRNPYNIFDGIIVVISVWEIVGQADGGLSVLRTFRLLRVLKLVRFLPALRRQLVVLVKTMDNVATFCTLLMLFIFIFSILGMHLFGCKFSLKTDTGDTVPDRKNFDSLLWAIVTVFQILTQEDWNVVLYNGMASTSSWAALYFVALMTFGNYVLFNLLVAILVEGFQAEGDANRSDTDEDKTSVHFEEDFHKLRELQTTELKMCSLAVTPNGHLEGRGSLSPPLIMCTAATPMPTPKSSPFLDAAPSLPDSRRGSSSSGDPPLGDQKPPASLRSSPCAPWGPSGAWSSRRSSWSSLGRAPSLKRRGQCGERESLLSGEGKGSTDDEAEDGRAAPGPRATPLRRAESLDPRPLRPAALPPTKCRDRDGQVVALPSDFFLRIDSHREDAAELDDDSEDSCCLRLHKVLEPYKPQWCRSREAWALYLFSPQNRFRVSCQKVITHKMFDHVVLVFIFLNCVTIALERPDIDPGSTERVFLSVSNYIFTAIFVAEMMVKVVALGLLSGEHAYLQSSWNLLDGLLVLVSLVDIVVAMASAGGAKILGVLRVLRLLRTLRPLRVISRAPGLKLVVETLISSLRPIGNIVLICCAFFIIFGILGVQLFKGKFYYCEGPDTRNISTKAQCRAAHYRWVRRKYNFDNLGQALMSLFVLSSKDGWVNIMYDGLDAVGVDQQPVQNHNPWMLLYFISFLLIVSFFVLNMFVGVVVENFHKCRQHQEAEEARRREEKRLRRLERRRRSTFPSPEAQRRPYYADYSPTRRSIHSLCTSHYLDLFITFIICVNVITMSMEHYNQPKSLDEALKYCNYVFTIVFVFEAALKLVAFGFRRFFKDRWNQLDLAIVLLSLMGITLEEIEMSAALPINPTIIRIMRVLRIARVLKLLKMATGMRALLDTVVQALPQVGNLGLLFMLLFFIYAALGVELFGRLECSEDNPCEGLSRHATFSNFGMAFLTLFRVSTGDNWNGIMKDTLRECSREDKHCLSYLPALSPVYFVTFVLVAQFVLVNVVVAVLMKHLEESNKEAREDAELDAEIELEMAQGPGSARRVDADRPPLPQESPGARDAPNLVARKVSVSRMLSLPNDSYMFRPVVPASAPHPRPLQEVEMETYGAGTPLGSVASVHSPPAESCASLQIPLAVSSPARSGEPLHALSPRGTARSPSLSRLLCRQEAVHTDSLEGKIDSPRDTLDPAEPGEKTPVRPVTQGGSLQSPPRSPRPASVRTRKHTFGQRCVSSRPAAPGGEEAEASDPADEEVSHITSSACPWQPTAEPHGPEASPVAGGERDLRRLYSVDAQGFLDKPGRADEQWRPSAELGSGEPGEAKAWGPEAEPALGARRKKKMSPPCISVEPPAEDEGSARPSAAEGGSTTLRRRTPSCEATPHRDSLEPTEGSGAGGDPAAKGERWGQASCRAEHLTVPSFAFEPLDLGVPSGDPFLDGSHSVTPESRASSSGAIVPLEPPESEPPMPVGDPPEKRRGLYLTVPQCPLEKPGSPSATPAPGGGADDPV

Compound	IC50 (α1H (CaV 3.2)) [nM]	Epilepsy 6 Hz (% Protected) (6 Hz psychomotor seizure; 0.25 hr) [%]	Epilepsy 6 Hz (% Protected) (6 Hz psychomotor seizure; 0.5 hr) [%]	Epilepsy 6 Hz (% Protected) (6 Hz psychomotor seizure; 1 hr) [%]	Epilepsy 6 Hz (% Protected) (6 Hz psychomotor seizure; 2 hr) [%]	Epilepsy 6 Hz (% Protected) (6 Hz psychomotor seizure; 4 hr) [%]	Rotarod Assay (% impaired) ([1]; 0.25 hr) [%]	Rotarod Assay (% impaired) ([1]; 0.5 hr) [%]	Rotarod Assay (% impaired) ([1]; 1 hr) [%]	Rotarod Assay (% impaired) ([1]; 2 hr) [%]	Rotarod Assay (% impaired) ([1]; 4 hr) [%]	% Spike Change Mean [2] [%]
N-(3,5- bis(trifluoromethyl) phenyl)-2-(1- (piperidine-3- carbonyl)piperidin-4- yl)acetamide [Compound 2]	350	50	50	100	33	0	25	50	100	100	50	−57.2
N[C@@H]1CCCC[C@H]1C(=O)N1CCC(CC(=O)Nc2cc(C(F)(F)F)cc(C(F)(F)F)c2)CC1 (racemic) [Compound 3, trans-2-(1-(2-aminocyclohexanecarbonyl)piperidin-4-yl)-N-(3,5-bis(trifluoromethyl)phenyl)acetamide]	60	100	75	100	0	50	0	75	100	75	50	−51.1
